Source: patent publication EP4714953A1, “MELANOCORTIN 2-TYPE RECEPTOR ANTAGONIST” (Scohia Pharma, Inc., priority 2023, dated 2024)
Where a name gives a salt, the structure may show the parent alone.

Target: T1, human MC2R (Homo sapiens, UniProt Q01718)
T1 construct: host or cells: GeneBLAzer MC2R-CRE-bla CHO-K1 cells
Assay: Measurement of human MC2R inhibitory activity using intracellular cAMP concentration as an indicator
Assay type: cell-based
Settings: test compound at 1 µM; GeneBLAzer MC2R-CRE-bla CHO-K1 cells; ACTH (Human 1-24) final concentration 3 pM; intracellular cAMP by HTRF
Description: Experimental Example 1: Measurement of human MC2R inhibitory activity using intracellular cAMP concentration as an indicator
GeneBLAzer MC2R-CRE-bla CHO-K1 cells (Thermo Fisher Scientific) that had been cryopreserved in advance were thawed and suspended in a medium [Dulbecco's Modified Eagle Medium (Thermo Fisher Scientific) containing fetal bovine serum (10% (v/v), HyClone Laboratories), Non-Essential Amino Acids Solution (1/100 (w/w), Thermo Fisher Scientific), HEPES (25 mM, Thermo Fisher Scientific), Penicillin/Streptomycin (1/100 (w/w), Fujifilm Wako)]. After centrifuging the cell suspension, the supernatant was removed, the cells were suspended in D-PBS(-) (Fujifilm Wako), and the supernatant was removed again after centrifugation. The cells were resuspended in an assay buffer [Hank's Balanced Salt Solution (Thermo Fisher Scientific) containing HEPES pH 7.5 (10 mM, Thermo Fisher Scientific), fatty acid-free bovine serum albumin (0.01% (w/v), Sigma), IBMX (500 µM, Fujifilm Wako)] and added to a 384-well white plate (Greiner) at 1,500 cells/well. Then, the test compound prepared using the assay buffer was added, and after standing for 20 min, an assay buffer containing ACTH (Human 1-24) (Peptide Institute) was added (ACTH final concentration, 3 pM). After standing at room temperature for 30 min, the intracellular cAMP level was measured using cAMP Gs HiRange kit HTRF (PerkinElmer). The inhibition rate (%) of the compound against MC2R was calculated using the following formula. Inhibition rate (%) = […] [formula] • A: cAMP concentration calculated from wells containing 3 pM ACTH (1-24) • B: cAMP concentration calculated from wells without addition of 3 pM ACTH (1-24) • C: cAMP concentration calculated from wells containing 3 pM ACTH (1-24) and test compound at concentration determined in advance

T1 sequence (Q01718 whole entry): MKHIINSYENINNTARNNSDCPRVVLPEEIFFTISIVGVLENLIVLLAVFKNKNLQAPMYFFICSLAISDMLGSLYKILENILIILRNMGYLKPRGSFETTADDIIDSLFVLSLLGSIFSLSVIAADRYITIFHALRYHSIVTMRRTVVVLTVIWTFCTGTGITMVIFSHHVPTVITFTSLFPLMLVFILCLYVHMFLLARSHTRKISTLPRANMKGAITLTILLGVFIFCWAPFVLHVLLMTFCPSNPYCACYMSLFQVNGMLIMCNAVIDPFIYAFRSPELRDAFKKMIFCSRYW
T1 sequence (Q8TCY5 whole entry partner): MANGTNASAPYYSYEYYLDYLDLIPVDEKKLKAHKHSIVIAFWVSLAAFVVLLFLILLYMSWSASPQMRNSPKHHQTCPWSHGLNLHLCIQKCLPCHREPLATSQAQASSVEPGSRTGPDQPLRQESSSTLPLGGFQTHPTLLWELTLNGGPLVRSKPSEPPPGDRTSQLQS

Structure (SMILES)	MC2R inhibition rate (% of inhibition) [%]
CCOc1ncccc1-c1ccc(N2CCN3C(=O)N(c4ccc(Cl)cc4C(F)(F)F)C[C@@H]3C2)c(C(=O)NCCC2CCNCC2)n1 [Example 25, 3-[(8aS)-2-[4-chloro-2-(trifluoromethyl)phenyl]-3-oxo-5,6,8,8a-tetrahydro-1H-imidazo[1,5-a]pyrazin-7-yl]-6-(2-ethoxypyridin-3-yl)-N-(2-piperidin-4-ylethyl)pyridine-2-carboxamide 2 hydrochloride]	99

Same assay, conditions: test compound at 1 µM; GeneBLAzer MC2R-CRE-bla CHO-K1 cells; ACTH (Human 1-24) final concentration 3 pM; intracellular cAMP by HTRF; read-out: MC2R inhibition rate (% of inhibition)

inhibition at 1 µM [%]	Structure (SMILES)
97	CCOc1ncccc1-c1ccc(N2C[C@H]3CN(c4ccc(Cl)cc4C(F)(F)F)C(=O)N3C[C@H]2C)c(C(=O)N[C@@H]2CC(=O)N(C)C2)n1 [Example 60, 3-[(6R,8aS)-2-[4-chloro-2-(trifluoromethyl)phenyl]-6-methyl-3-oxo-5,6,8,8a-tetrahydro-1H-imidazo[1,5-a]pyrazin-7-yl]-6-(2-ethoxy-3-pyridinyl)-N-[(3R)-1-methyl-5-oxopyrrolidin-3-yl]pyridine-2-carboxamide]
97	CCOc1ccccc1-c1ccc(N2C[C@H]3CN(C4(C(F)(F)F)CCC4)C(=O)N3C[C@H]2CC)c(C(=O)N[C@@H]2CC(=O)N(C)C2)n1 [Example 66, 3-[(6R,8aS)-6-ethyl-3-oxo-2-[1-(trifluoromethyl)cyclobutyl]-5,6,8,8a-tetrahydro-1H-imidazo[1,5-a]pyrazin-7-yl]-6-(2-ethoxyphenyl)-N-[(3R)-1-methyl-5-oxopyrrolidin-3-yl]pyridine-2-carboxamide]
100	CCOc1ncccc1-c1ccc(N2C[C@H]3CN(c4ccc(Cl)cc4C(F)(F)F)C(=O)N3C[C@H]2CC)c(C(=O)NC[C@@H]2CCN2C(=O)OC(C)(C)C)n1 [Example 45, tert-butyl (2S)-2-[[[3-[(6R,8aS)-2-[4-chloro-2-(trifluoromethyl)phenyl]-6-ethyl-3-oxo-5,6,8,8a-tetrahydro-1H-imidazo[1,5-a]pyrazin-7-yl]-6-(2-ethoxypyridin-3-yl)pyridine-2-carbonyl]amino]methyl]azetidine-1-carboxylate]
100	CCOc1ncccc1-c1ccc(N2C[C@H]3CN(c4ccc(Cl)cc4C(F)(F)F)C(=O)N3C[C@H]2CC)c(C(=O)NC[C@@H]2CCN2)n1 [Example 46, 3-[(6R,8aS)-2-[4-chloro-2-(trifluoromethyl)phenyl]-6-ethyl-3-oxo-5,6,8,8a-tetrahydro-1H-imidazo[1,5-a]pyrazin-7-yl]-N-[[(2S)-azetidin-2-yl]methyl]-6-(2-ethoxypyridin-3-yl)pyridine-2-carboxamide]
94	CCOc1ccccc1-c1ccc(N2C[C@H]3CN(c4ccc(Cl)cc4C(F)(F)F)C(=O)N3C[C@H]2CC)c(C(=O)N[C@@H]2CC(=O)N(C)C2)n1 [Example 67, 3-[(6R,8aS)-2-[4-chloro-2-(trifluoromethyl)phenyl]-6-ethyl-3-oxo-5,6,8,8a-tetrahydro-1H-imidazo[1,5-a]pyrazin-7-yl]-6-(2-ethoxyphenyl)-N-[(3R)-1-methyl-5-oxopyrrolidin-3-yl]pyridine-2-carboxamide]
97	COc1ncccc1-c1ccc(N2C[C@H]3CN(c4ccc(Cl)cc4C(F)(F)F)C(=O)N3C[C@H]2C)c(C(=O)N[C@@H]2CC(=O)N(C)C2)n1 [Example 61, 3-[(6R,8aS)-2-[4-chloro-2-(trifluoromethyl)phenyl]-6-methyl-3-oxo-5,6,8,8a-tetrahydro-1H-imidazo[1,5-a]pyrazin-7-yl]-6-(2-methoxy-3-pyridinyl)-N-[(3R)-1-methyl-5-oxopyrrolidin-3-yl]pyridine-2-carboxamide]

The next lines start with the compound.

Structure (SMILES)	inhibition at 1 µM [%]
CCOc1ncccc1-c1ccc(N2CCN3C(=O)N(c4ccc(Cl)cc4C(F)(F)F)C[C@@H]3C2)c(C(=O)NC2CCNC2)n1 (stereo partly drawn) [Example 28, 3-[(8aS)-2-[4-chloro-2-(trifluoromethyl)phenyl]-3-oxo-5,6,8,8a-tetrahydro-1H-imidazo[1,5-a]pyrazin-7-yl]-6-(2-ethoxypyridin-3-yl)-N-pyrrolidin-3-ylpyridine-2-carboxamide]	100
CCOc1ncccc1-c1ccc(N2CCN3C(=O)N(c4ccc(Cl)cc4C(F)(F)F)C[C@H]3C2)c(C(=O)NCCN(C)C)n1 [Example 8, 3-[(8aR)-2-[4-chloro-2-(trifluoromethyl)phenyl]-3-oxo-5,6,8,8a-tetrahydro-1H-imidazo[1,5-a]pyrazin-7-yl]-N-[2-(dimethylamino)ethyl]-6-(2-ethoxypyridin-3-yl)pyridine-2-carboxamide]	90
CCOc1ncccc1-c1ccc(N2C[C@H]3CN(c4ccc(Cl)cc4C(F)(F)F)C(=O)N3C[C@H]2CC)c(C(=O)NC[C@H]2CCN2C(=O)OC(C)(C)C)n1 [Example 43, tert-butyl (2R)-2-[[[3-[(6R,8aS)-2-[4-chloro-2-(trifluoromethyl)phenyl]-6-ethyl-3-oxo-5,6,8,8a-tetrahydro-1H-imidazo[1,5-a]pyrazin-7-yl]-6-(2-ethoxypyridin-3-yl)pyridine-2-carbonyl]amino]methyl]azetidine-1-carboxylate]	100
CCOc1ncccc1-c1ccc(N2C[C@H]3CN(c4ccc(Cl)cc4C(F)(F)F)C(=O)N3C[C@H]2CC)c(C(=O)NCCNC(C)=O)n1 [Example 36, N-(2-acetamidoethyl)-3-[(6R,8aS)-2-[4-chloro-2-(trifluoromethyl)phenyl]-6-ethyl-3-oxo-5,6,8,8a-tetrahydro-1H-imidazo[1,5-a]pyrazin-7-yl]-6-(2-ethoxypyridin-3-yl)pyridine-2-carboxamide]	100
CCOc1ncccc1-c1ccc(N2CCN3C(=O)N(c4ccc(Cl)cc4C(F)(F)F)CC3C2)c(C=O)n1 (stereo not drawn) [Example 1, 3-[2-[4-chloro-2-(trifluoromethyl)phenyl]-3-oxo-5,6,8,8a-tetrahydro-1H-imidazo[1,5-a]pyrazin-7-yl]-6-(2-ethoxypyridin-3-yl)pyridine-2-carbaldehyde]	100
CCOc1ncccc1-c1ccc(N2CCN3C(=O)N(c4ccc(Cl)cc4C(F)(F)F)C[C@@H]3C2)c(C(=O)NCCCc2ccccn2)n1 [Example 14, 3-[(8aS)-2-[4-chloro-2-(trifluoromethyl)phenyl]-3-oxo-5,6,8,8a-tetrahydro-1H-imidazo[1,5-a]pyrazin-7-yl]-6-(2-ethoxypyridin-3-yl)-N-(3-pyridin-2-ylpropyl)pyridine-2-carboxamide]	100
CCOc1ncccc1-c1ccc(N2C[C@H]3CN(c4ccc(Cl)cc4C(F)(F)F)C(=O)N3C[C@H]2CC)c(C(=O)NC[C@@H](C)O)n1 [Example 33, 3-[(6R,8aS)-2-[4-chloro-2-(trifluoromethyl)phenyl]-6-ethyl-3-oxo-5,6,8,8a-tetrahydro-1H-imidazo[1,5-a]pyrazin-7-yl]-6-(2-ethoxypyridin-3-yl)-N-[(2R)-2-hydroxypropyl]pyridine-2-carboxamide]	100
CCOc1ncccc1-c1ccc(N2C[C@H]3CN(c4ccc(Cl)cc4C(F)(F)F)C(=O)N3C[C@H]2CC)c(C(=O)N[C@@H](C)C(=O)NC)n1 [Example 41, 3-[(6R,8aS)-2-[4-chloro-2-(trifluoromethyl)phenyl]-6-ethyl-3-oxo-5,6,8,8a-tetrahydro-1H-imidazo[1,5-a]pyrazin-7-yl]-6-(2-ethoxypyridin-3-yl)-N-[(2S)-1-(methylamino)-1-oxopropan-2-yl]pyridine-2-carboxamide]	100
